Reference: publication PMC11724841 (Communications Biology, 2025)
Each block holds one compound with its values, some of them ahead of it.

What was measured:
iso-3 HiPIP = target: T1, iso-3 HiPIP (Halorhodospira halophila, UniProt A1WXH6); assay: cryo-EM structure, […] Å; assay type: binding; conditions: native complex; functional N-terminal domain
T1 sequence (A1WXH6 26-145): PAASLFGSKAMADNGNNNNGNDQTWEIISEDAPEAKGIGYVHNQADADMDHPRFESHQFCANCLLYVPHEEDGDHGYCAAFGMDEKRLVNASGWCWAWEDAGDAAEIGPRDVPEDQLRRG

[1] = target: Hlr. halophila RC (in LH1–RC–HiPIP complex) (Halorhodospira halophila, UniProt A1WXF6+A1WXF7); assay: cryo-EM structure, […] Å; assay type: binding; conditions: native complex
Hlr. halophila RC (in LH1–RC–HiPIP complex), sequence (A1WXF7 1-276): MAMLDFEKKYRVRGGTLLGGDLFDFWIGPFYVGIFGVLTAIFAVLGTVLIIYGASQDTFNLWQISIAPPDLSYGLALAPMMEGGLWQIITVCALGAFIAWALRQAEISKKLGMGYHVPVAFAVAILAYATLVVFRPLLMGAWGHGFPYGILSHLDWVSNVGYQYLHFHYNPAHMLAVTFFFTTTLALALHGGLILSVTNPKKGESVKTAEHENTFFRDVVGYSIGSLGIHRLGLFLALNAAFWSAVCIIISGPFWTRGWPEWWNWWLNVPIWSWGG
Hlr. halophila RC (in LH1–RC–HiPIP complex), sequence (A1WXF6 1-323): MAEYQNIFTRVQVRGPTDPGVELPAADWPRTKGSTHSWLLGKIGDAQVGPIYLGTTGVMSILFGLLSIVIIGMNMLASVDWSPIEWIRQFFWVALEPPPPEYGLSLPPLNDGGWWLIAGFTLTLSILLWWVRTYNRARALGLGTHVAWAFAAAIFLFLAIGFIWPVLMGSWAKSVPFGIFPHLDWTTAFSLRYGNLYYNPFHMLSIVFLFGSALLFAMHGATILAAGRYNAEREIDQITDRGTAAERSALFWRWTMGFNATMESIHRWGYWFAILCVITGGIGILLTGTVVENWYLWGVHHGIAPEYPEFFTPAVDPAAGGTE
Hlr. halophila RC (in LH1–RC–HiPIP complex), sequence (A1WXI3 1-278 partner): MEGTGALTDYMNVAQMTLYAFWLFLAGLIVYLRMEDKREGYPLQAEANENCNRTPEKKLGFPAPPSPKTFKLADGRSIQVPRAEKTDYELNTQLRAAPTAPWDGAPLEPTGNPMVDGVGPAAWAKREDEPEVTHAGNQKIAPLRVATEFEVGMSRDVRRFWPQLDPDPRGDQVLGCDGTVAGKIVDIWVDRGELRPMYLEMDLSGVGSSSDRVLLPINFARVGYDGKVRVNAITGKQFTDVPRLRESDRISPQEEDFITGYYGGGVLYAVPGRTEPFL
Hlr. halophila RC (in LH1–RC–HiPIP complex), sequence (A1WXF5 26-362 partner): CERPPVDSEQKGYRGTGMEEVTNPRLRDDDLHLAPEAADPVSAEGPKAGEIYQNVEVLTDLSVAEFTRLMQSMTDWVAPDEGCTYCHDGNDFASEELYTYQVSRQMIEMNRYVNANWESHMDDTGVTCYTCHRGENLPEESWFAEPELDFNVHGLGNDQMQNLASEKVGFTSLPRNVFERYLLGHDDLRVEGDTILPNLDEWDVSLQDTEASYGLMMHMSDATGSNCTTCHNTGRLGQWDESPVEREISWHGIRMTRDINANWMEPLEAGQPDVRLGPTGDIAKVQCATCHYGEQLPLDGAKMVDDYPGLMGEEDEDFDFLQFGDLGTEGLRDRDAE

[2] = target: Halorhodospira halophila LH1–RC core complex (Halorhodospira halophila strain BN9622); assay: cryo-EM structure

Compound: [S]12[Fe]3[S]4[Fe]1[S]1[Fe]2[S]3[Fe]41 [4Fe–4S, 4Fe–4S cluster]
cryo-EM structure, 2.44 Å (iso-3 HiPIP): N-terminal functional portion containing the 4Fe–4S cluster

cryo-EM structure, 2.44 Å ([1]; RC pigment, printed only as BPhe): BPhe, orange sticks
Compound: CC[C@H]1c2cc3[nH]c4c(c3C)C(=O)[C@H](C(=O)OC)c4c3nc(cc4[nH]c(cc(n2)[C@@H]1C)c(C(C)=O)c4C)[C@@H](C)[C@@H]3CCC(=O)OC/C=C(\C)CCC[C@H](C)CCC[C@H](C)CCCC(C)C [BPhe]

Compound: CC(C)=CCC/C(C)=C/CC/C(C)=C/CC/C(C)=C/CC/C(C)=C/CC/C(C)=C/CC/C(C)=C/CC/C(C)=C/CC1=C(C)C(=O)c2ccccc2C1=O [MQ-8, menaquinone-8]
cryo-EM structure, 2.44 Å ([1]; QA site): one MQ-8 and one UQ-8 were identified unambiguously at the RC QA and QB sites

Compound: COC1=C(OC)C(=O)C(C/C=C(\C)CC/C=C(\C)CC/C=C(\C)CC/C=C(\C)CC/C=C(\C)CC/C=C(\C)CC/C=C(\C)CCC=C(C)C)=C(C)C1=O [UQ-8, ubiquinone-8]
cryo-EM structure, 2.44 Å ([1]; QB site): one MQ-8 and one UQ-8 were identified unambiguously at the RC QA and QB sites

Compound: Halorhodospira halophila iso-3 high-potential iron–sulfur protein (HiPIP) (natural protein)
percent of LH1–RC particles with bound HiPIP [2]: 66.7%
